Test results taken from ChEMBL document CHEMBL1811817, “Molecular docking studies and in vitro screening of new dihydropyridine derivatives as human MRP1 inhibitors” (Bioorg Med Chem, 2011).

Key:
[1] = biological target: T1, Multidrug resistance-associated protein 1 (Homo sapiens, UniProt P33527); experiment: Inhibition of vanadate-sensitive ATPase basal activity of human MRP1 expressed in Sf9 cells assessed as generation of inorganic phosphate at 10 uM by spectrophotometry in presence of glutathione; conditions: sf9, 10 µM
MRP1 [2] = biological target: T2, MRP1 (Homo sapiens, UniProt P33527); experiment: Inhibition of human MRP1 expressed in Spodoptera frugiperda Sf9 cells assessed as decrease in NEM-GS induced vanadate-sensitive ATPase activity measured by generation of inorganic phosphate at 30 uM by spectrophotometry in presence of glutathione; conditions: Spodoptera frugiperda Sf9 cells expressing human MRP1, probe NEM-GS
[3] = biological target: T1, Multidrug resistance-associated protein 1; experiment: Inhibition of human MRP1 expressed in Spodoptera frugiperda Sf9 cells assessed as inhibition of NEM-GS-induced vanadate-sensitive ATPase activity measured by generation of inorganic phosphate by spectrophotometry in presence of glutathione
MRP1 [4] = biological target: T2, MRP1; experiment: Inhibition of human MRP1 expressed in Spodoptera frugiperda Sf9 cells assessed as decrease in NEM-GS induced vanadate-sensitive ATPase activity measured by generation of inorganic phosphate at 100 uM by spectrophotometry in presence of glutathione; conditions: Spodoptera frugiperda Sf9 cells expressing human MRP1, probe NEM-GS

T1 sequence (P33527 whole entry): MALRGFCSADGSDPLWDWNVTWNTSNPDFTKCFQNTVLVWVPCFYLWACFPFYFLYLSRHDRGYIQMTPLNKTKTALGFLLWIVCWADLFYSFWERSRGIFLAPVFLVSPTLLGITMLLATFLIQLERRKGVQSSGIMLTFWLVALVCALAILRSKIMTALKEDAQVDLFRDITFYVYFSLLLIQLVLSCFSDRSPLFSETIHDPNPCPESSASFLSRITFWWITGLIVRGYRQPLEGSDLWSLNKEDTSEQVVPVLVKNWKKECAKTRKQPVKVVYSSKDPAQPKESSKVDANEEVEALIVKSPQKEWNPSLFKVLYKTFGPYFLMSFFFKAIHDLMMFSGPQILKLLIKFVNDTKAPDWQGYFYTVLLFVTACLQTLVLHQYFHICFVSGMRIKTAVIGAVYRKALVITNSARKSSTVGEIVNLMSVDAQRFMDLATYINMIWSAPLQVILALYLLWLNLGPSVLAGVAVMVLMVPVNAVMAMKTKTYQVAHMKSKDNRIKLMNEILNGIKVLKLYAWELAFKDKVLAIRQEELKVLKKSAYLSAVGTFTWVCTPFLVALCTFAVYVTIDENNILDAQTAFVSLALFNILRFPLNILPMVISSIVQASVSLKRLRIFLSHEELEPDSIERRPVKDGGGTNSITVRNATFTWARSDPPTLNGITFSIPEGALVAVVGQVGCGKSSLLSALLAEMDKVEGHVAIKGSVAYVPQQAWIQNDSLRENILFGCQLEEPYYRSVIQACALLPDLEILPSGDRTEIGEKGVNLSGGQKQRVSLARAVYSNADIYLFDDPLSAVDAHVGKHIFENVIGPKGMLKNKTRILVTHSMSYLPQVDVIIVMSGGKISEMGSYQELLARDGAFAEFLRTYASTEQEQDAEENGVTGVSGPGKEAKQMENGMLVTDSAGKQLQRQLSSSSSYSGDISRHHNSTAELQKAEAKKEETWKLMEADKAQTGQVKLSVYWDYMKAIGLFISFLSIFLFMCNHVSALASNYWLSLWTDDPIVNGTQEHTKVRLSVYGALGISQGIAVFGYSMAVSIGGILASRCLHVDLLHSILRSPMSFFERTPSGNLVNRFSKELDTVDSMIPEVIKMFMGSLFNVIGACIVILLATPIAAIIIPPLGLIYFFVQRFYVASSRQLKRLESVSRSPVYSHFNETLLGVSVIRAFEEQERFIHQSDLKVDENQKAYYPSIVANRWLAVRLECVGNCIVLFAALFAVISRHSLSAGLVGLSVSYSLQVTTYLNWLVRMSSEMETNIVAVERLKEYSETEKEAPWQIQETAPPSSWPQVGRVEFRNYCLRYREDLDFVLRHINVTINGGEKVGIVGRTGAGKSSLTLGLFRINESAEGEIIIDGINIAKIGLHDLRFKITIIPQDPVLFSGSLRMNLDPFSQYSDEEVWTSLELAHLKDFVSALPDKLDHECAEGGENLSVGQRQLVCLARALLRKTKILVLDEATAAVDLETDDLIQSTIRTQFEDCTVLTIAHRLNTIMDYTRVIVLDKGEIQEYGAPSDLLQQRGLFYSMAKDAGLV
T2 sequence (P33527 whole entry): as above

Row | inhibition (INH) [3] | Compound | other results
1 |  | CC1=C(C(=O)Nc2ccccc2)C(c2ccco2)C(C(=O)Nc2ccccc2)=C(C)N1 | inhibition (INH) [1]: Active; inhibition at 30 µM (MRP1 [2]): 52.8%
2 | Not Active | CC1=C(C(=O)Nc2ccccc2)C(c2ccccn2)C(C(=O)Nc2ccccc2)=C(C)N1 | 
3 | Not Active | CC1=C(C(=O)Nc2ccccc2)C(c2cccs2)C(C(=O)Nc2ccccc2)=C(C)N1 | 
4 | Not Active | CC1=C(C(=O)Nc2ccccc2)C(c2ncc[nH]2)C(C(=O)Nc2ccccc2)=C(C)N1 | 
5 | Not Active | CC1=C(C(=O)Nc2ccccc2)C(c2ccc[nH]2)C(C(=O)Nc2ccccc2)=C(C)N1 | 
6 | Not Active | CC1=C(C(=O)Nc2ccccc2)C(c2ccc(Cl)cc2)C(C(=O)Nc2ccccc2)=C(C)N1 | 
7 | Not Active | CC1=C(C(=O)Nc2ccccn2)C(c2ccco2)C(C(=O)Nc2ccccn2)=C(C)N1 | 
8 | Not Active | CC1=C(C(=O)Nc2ccccn2)C(c2ncc[nH]2)C(C(=O)Nc2ccccn2)=C(C)N1 | 
9 |  | CC1=C(C(=O)Nc2ccccn2)C(c2ccc[nH]2)C(C(=O)Nc2ccccn2)=C(C)N1 | inhibition (INH) [1]: Active; inhibition at 100 µM (MRP1 [4]): 78%; inhibition at 30 µM (MRP1 [2]): 69.8%
10 | Not Active | CC1=C(C(=O)Nc2ccc(C)cc2)C(c2ncc[nH]2)C(C(=O)Nc2ccc(C)cc2)=C(C)N1 | 
